Details: Liquid; for mass density: Vibrating tube method

CCCCC(CC)COC(=O)CCCCCCCCC(=O)OCC(CC)CCCC (centres undefined) [bis(2-ethylhexyl) decanedioate]
Details | mass density [kg/m3] | viscosity [mPa·s]
278.15 K, 101.33 kPa | 924.7 | –
278.15 K, Concentric cylinders viscometry | – | 42.04
283.15 K, 101.33 kPa | 921.2 | –
283.15 K, Concentric cylinders viscometry | – | 32.77
288.15 K, 101.33 kPa | 917.6 | –
288.15 K, Concentric cylinders viscometry | – | 26.01
293.15 K, 101.33 kPa | 913.9 | –
293.15 K, Concentric cylinders viscometry | – | 21
298.15 K, 100 kPa | 909.8 | –
298.15 K, 101.33 kPa | 910.3 | –
298.15 K, 1000 kPa | 910.4 | –
298.15 K, 5000 kPa | 912.8 | –
298.15 K, 10000 kPa | 915.6 | –
298.15 K, 15000 kPa | 918.4 | –
298.15 K, 20000 kPa | 921.2 | –
298.15 K, 30000 kPa | 926.4 | –
298.15 K, 40000 kPa | 931.4 | –
298.15 K, 45000 kPa | 933.8 | –
298.15 K, 50000 kPa | 936.1 | –
298.15 K, 60000 kPa | 940.6 | –
298.15 K, Concentric cylinders viscometry | – | 17.21
303.15 K, 101.33 kPa | 906.7 | –
303.15 K, Concentric cylinders viscometry | – | 14.32
308.15 K, 101.33 kPa | 903.1 | –
308.15 K, Concentric cylinders viscometry | – | 12.07
313.15 K, 101.33 kPa | 899.5 | –
313.15 K, Concentric cylinders viscometry | – | 10.28
318.15 K, 101.33 kPa | 895.9 | –
318.15 K, Concentric cylinders viscometry | – | 8.845
323.15 K, 100 kPa | 892 | –
323.15 K, 101.33 kPa | 892.3 | –
323.15 K, 1000 kPa | 892.6 | –
323.15 K, 5000 kPa | 895.3 | –
323.15 K, 10000 kPa | 898.5 | –
323.15 K, 15000 kPa | 901.7 | –
323.15 K, 20000 kPa | 904.7 | –
323.15 K, 30000 kPa | 910.4 | –
323.15 K, 40000 kPa | 915.8 | –
323.15 K, 45000 kPa | 918.4 | –
323.15 K, 50000 kPa | 920.9 | –
323.15 K, 60000 kPa | 925.7 | –
323.15 K, Concentric cylinders viscometry | – | 7.679
328.15 K, 101.33 kPa | 888.7 | –
328.15 K, Concentric cylinders viscometry | – | 6.727
333.15 K, 101.33 kPa | 885.1 | –
333.15 K, Concentric cylinders viscometry | – | 5.939
338.15 K, 101.33 kPa | 881.4 | –
338.15 K, Concentric cylinders viscometry | – | 5.275
343.15 K, 101.33 kPa | 877.9 | –
343.15 K, Concentric cylinders viscometry | – | 4.719
348.15 K, 100 kPa | 874 | –
348.15 K, 101.33 kPa | 874.3 | –
348.15 K, 1000 kPa | 874.7 | –
348.15 K, 5000 kPa | 877.7 | –
348.15 K, 10000 kPa | 881.3 | –
348.15 K, 15000 kPa | 884.8 | –
348.15 K, 20000 kPa | 888.2 | –
348.15 K, 30000 kPa | 894.5 | –
348.15 K, 40000 kPa | 900.5 | –
348.15 K, 45000 kPa | 903.3 | –
348.15 K, 50000 kPa | 906 | –
348.15 K, 60000 kPa | 911.3 | –
348.15 K, Concentric cylinders viscometry | – | 4.248
353.15 K, 101.33 kPa | 870.7 | –
353.15 K, Concentric cylinders viscometry | – | 3.843
358.15 K, 101.33 kPa | 867.1 | –
358.15 K, Concentric cylinders viscometry | – | 3.494
363.15 K, 101.33 kPa | 863.7 | –
363.15 K, Concentric cylinders viscometry | – | 3.169
368.15 K, 101.33 kPa | 859.9 | –
368.15 K, Concentric cylinders viscometry | – | 2.902
373.15 K, 101.33 kPa | 856.4 | –
373.15 K, 1000 kPa | 856.9 | –
373.15 K, 5000 kPa | 860.3 | –
373.15 K, 10000 kPa | 864.3 | –
373.15 K, 15000 kPa | 868.1 | –
373.15 K, 20000 kPa | 871.8 | –
373.15 K, 30000 kPa | 878.8 | –
373.15 K, 40000 kPa | 885.2 | –
373.15 K, 45000 kPa | 888.3 | –
373.15 K, 50000 kPa | 891.3 | –
373.15 K, 60000 kPa | 897 | –
373.15 K, Concentric cylinders viscometry | – | 2.661
398.15 K, 1000 kPa | 839 | –
398.15 K, 5000 kPa | 842.8 | –
398.15 K, 10000 kPa | 847.3 | –
398.15 K, 15000 kPa | 851.6 | –
398.15 K, 20000 kPa | 855.8 | –
398.15 K, 30000 kPa | 863.4 | –
398.15 K, 40000 kPa | 870.4 | –
398.15 K, 45000 kPa | 873.7 | –
398.15 K, 50000 kPa | 877 | –
398.15 K, 60000 kPa | 883.1 | –

viscosity [mPa·s], Falling or rolling sphere viscometry
Details | 298.15 K | 313.15 K | 323.15 K | 348.15 K | 373.15 K | 398.15 K
100 kPa | 17 | 10.2 | 7.53 | 4.17 | 2.67 | 1.84
1000 kPa | 17.3 | 10.3 | 7.63 | 4.21 | 2.7 | 1.86
5000 kPa | 18.4 | 10.9 | 8.09 | 4.42 | 2.84 | 1.96
10000 kPa | 19.9 | 11.7 | 8.68 | 4.69 | 3.03 | 2.07
15000 kPa | 21.5 | 12.5 | 9.29 | 4.97 | 3.22 | 2.2
20000 kPa | 23.2 | 13.4 | 9.94 | 5.28 | 3.42 | 2.32
30000 kPa | 26.8 | 15.2 | 11.3 | 5.94 | 3.83 | 2.59
40000 kPa | 30.8 | 17.3 | 12.8 | 6.68 | 4.27 | 2.86
45000 kPa | 33 | 18.4 | 13.6 | 7.07 | 4.49 | 3.01
50000 kPa | 35.2 | 19.6 | 14.4 | 7.48 | 4.72 | 3.16
60000 kPa | 40 | 22 | 16 | 8.37 | 5.19 | 3.46

Reference: the NIST ThermoML archive (doi:10.1016/j.jct.2011.07.005)
